Measured values published in PubChem BioAssay AID248 (DTP/NCI, 2004).
Several values for one entry are separate records, joined by “and”; a condition that tells them apart may be missing. Equal values may be shown once. Inconclusive results and toxic doses are left out. Rule as the data show it: active = T/C of 150% or more; inactive = T/C below 125%. Peptide text beside a SMILES is read from it. * marks the point of attachment. Cbz = O=C(OCc1ccccc1)*

System: L1210 leukemia ip in BDF1 mice, survival T/C
Experiment: NCI In Vivo Anticancer Drug Screen. Data for tumor model L1210 Leukemia (intraperitoneal) in B6D2F1 (BDF1) mice
Conditions: endpoint: mean survival time, higher = longer survival
Procedure, shortened: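 Transplantable tumor model; survival measured in treated vs vehicle control mice. Value = treated/control.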

[1] = dose: 100.0 mg/kg/injection, schedule: Q01DX009 (ip), vehicle: saline with Tween-80
[2] = dose: 200.0 mg/kg/injection, schedule: Q01DX009 (ip), vehicle: saline with Tween-80
[3] = dose: 100.0 mg/kg/injection, schedule: Q01DX001 (ip), vehicle: saline
[4] = dose: 200.0 mg/kg/injection, schedule: Q01DX001 (ip), vehicle: saline
[5] = dose: 400.0 mg/kg/injection, schedule: Q01DX001 (ip), vehicle: saline
[6] = dose: 100.0 mg/kg/injection, schedule: Q04DX003 (ip), vehicle: Klucel (hydroxypropylcellulose) (HPC)
[7] = dose: 200.0 mg/kg/injection, schedule: Q04DX003 (ip), vehicle: Klucel (hydroxypropylcellulose) (HPC)
[8] = dose: 400.0 mg/kg/injection, schedule: Q04DX003 (ip), vehicle: Klucel (hydroxypropylcellulose) (HPC)
[9] = dose: 100.0 mg/kg/injection, schedule: Q01DX009 (ip), vehicle: Klucel (hydroxypropylcellulose) (HPC)
[10] = dose: 400.0 mg/kg/injection, schedule: Q01DX009 (ip), vehicle: saline with Tween-80
[11] = dose: 100.0 mg/kg/injection, schedule: Q04DX003 (ip), vehicle: saline with Tween-80
[12] = dose: 200.0 mg/kg/injection, schedule: Q04DX003 (ip), vehicle: saline with Tween-80
[13] = dose: 400.0 mg/kg/injection, schedule: Q04DX003 (ip), vehicle: saline with Tween-80
[14] = dose: 50.0 mg/kg/injection, schedule: Q01DX009 (ip), vehicle: saline with Tween-80
[15] = dose: 50.0 mg/kg/injection, schedule: Q01DX009 (ip), vehicle: saline
[16] = dose: 75.0 mg/kg/injection, schedule: Q01DX009 (ip), vehicle: saline with Tween-80

Measured: T/C

c1ccc(-c2c(-c3ccccc3)c(-c3ccccc3)c(-c3ccccc3)c(-c3ccccc3)c2-c2ccccc2)cc1
inactive: dose: 25.0 mg/kg/injection, schedule: Q01DX009 (ip), vehicle: water 104 % of control | dose: 50.0 mg/kg/injection, schedule: Q01DX009 (ip), vehicle: water 102 % of control | dose: 100.0 mg/kg/injection, schedule: Q01DX009 (ip), vehicle: water 96 % of control | dose: 200.0 mg/kg/injection, schedule: Q01DX009 (ip), vehicle: water 100 % of control | dose: 400.0 mg/kg/injection, schedule: Q01DX009 (ip), vehicle: water 97 % of control

O=C1c2ccccc2C(=O)N1CNc1ccc(Oc2ccc(Cl)cc2)cc1
inactive: [1] 93 % of control | [2] 93 % of control

Nc1nc(N)c(-c2ccc(Cl)c(Cl)c2)c(C=O)n1
inactive: [3] 107 % of control | [4] 114 % of control | [5] 111 % of control

Cc1cc(O)c(C(N)=O)c(=O)[nH]1
inactive: [3] 95 % of control | [4] 98 % of control | [5] 101 % of control

CC(O)C(O)C(O)C(O)C(c1ccc(Cl)cc1)c1ccc(Cl)cc1 (stereo not drawn)
inactive: dose: 50.0 mg/kg/injection, schedule: Q01DX001 (ip), vehicle: saline 104 % of control | [3] 98 % of control

CCOc1ccc(NC(C)=O)cc1
inactive: [6] 96 % of control | [7] 104 % of control | [8] 115 % of control

Nc1nc(=S)c2[nH]c(N=Nc3ccc(S(=O)(=O)Nc4cnc5ccccc5n4)cc3)nc2[nH]1
inactive: dose: 25.0 mg/kg/injection, schedule: Q01DX009 (ip), vehicle: Klucel (hydroxypropylcellulose) (HPC) 112 % of control | dose: 50.0 mg/kg/injection, schedule: Q01DX009 (ip), vehicle: Klucel (hydroxypropylcellulose) (HPC) 109 % of control | [9] 91 % of control

NC(=O)CNC(=O)CNC(=O)OCc1ccccc1 (Cbz-Gly-Gly-NH2)
inactive: [1] 100 % of control | [2] 92 % of control | [10] 92 % of control

CC1CCN(S(=O)(=O)c2ccc(Cl)cc2)CC1
inactive: [9] 102 % of control | dose: 200.0 mg/kg/injection, schedule: Q01DX009 (ip), vehicle: Klucel (hydroxypropylcellulose) (HPC) 97 % of control | dose: 400.0 mg/kg/injection, schedule: Q01DX009 (ip), vehicle: Klucel (hydroxypropylcellulose) (HPC) 97 % of control

O=S(=O)(OCCCl)OCCCl
inactive: dose: 25.0 mg/kg/injection, schedule: Q01DX010 (ip), vehicle: olive oil, sesame oil, peanut oil 100 % of control | dose: 37.5 mg/kg/injection, schedule: Q01DX010 (ip), vehicle: olive oil, sesame oil, peanut oil 102 % of control | dose: 50.0 mg/kg/injection, schedule: Q01DX010 (ip), vehicle: olive oil, sesame oil, peanut oil 97 % of control

CC1(Br)Cc2ccccc2C1=O (stereo not drawn)
inactive: [11] 107 % of control | [12] 94 % of control | [13] 103 % of control

Cc1cccc(NC(=S)NC(=O)CCc2ccccc2)c1C
inactive: dose: 25.0 mg/kg/injection, schedule: Q01DX009 (ip), vehicle: saline with Tween-80 94 % of control and 88 % of control | [14] 94 % of control and 88 % of control | dose: 100.0 mg/kg/injection, schedule: Q01DX001 (ip), vehicle: saline with Tween-80 95 % of control | dose: 100.0 mg/kg/injection, schedule: Q04DX002 (ip), vehicle: saline with Tween-80 95 % of control and 90 % of control | [11] 86 % of control | dose: 200.0 mg/kg/injection, schedule: Q01DX001 (ip), vehicle: saline with Tween-80 98 % of control | dose: 200.0 mg/kg/injection, schedule: Q04DX002 (ip), vehicle: saline with Tween-80 93 % of control | [12] 89 % of control | dose: 400.0 mg/kg/injection, schedule: Q01DX001 (ip), vehicle: saline with Tween-80 97 % of control | dose: 400.0 mg/kg/injection, schedule: Q04DX002 (ip), vehicle: saline with Tween-80 93 % of control and 102 % of control | [13] 86 % of control

CC1OC(O)C(N)C(O)C1O (stereo not drawn)
inactive: [3] 107 % of control | [4] 106 % of control | [5] 106 % of control

OC1C2c3ccccc3C(c3c2cc(F)c2ccccc32)C1O (stereo not drawn)
inactive: dose: 37.5 mg/kg/injection, schedule: Q01DX001 (ip), vehicle: Klucel (hydroxypropylcellulose) (HPC) 102 % of control | dose: 75.0 mg/kg/injection, schedule: Q01DX001 (ip), vehicle: Klucel (hydroxypropylcellulose) (HPC) 96 % of control | dose: 150.0 mg/kg/injection, schedule: Q01DX001 (ip), vehicle: Klucel (hydroxypropylcellulose) (HPC) 104 % of control

CNCCC(CNC1=NCCN1)(c1cccc2ccccc12)C(C)C (stereo not drawn)
inactive: [6] 94 % of control

CC(=O)Nc1c([N+](=O)[O-])cc2c3c(cccc13)C=C2
inactive: [2] 96 % of control | [10] 96 % of control

N#Cc1nn(C2OC(CO)C(O)C2O)c2ncnc(N)c12 (stereo not drawn)
inactive: dose: 25.0 mg/kg/injection, schedule: Q01DX009 (ip), vehicle: saline 110 % of control | dose: 50.0 mg/kg/injection, schedule: Q01DX005 (ip), vehicle: saline 117 % of control | [15] 114 % of control | dose: 100.0 mg/kg/injection, schedule: Q01DX005 (ip), vehicle: saline 97 % of control

COc1cccc[n+]1[O-]
inactive: [15] 94 % of control | dose: 100.0 mg/kg/injection, schedule: Q01DX009 (ip), vehicle: saline 101 % of control | dose: 100.0 mg/kg/injection, schedule: Q04DX003 (ip), vehicle: saline 96 % of control | dose: 200.0 mg/kg/injection, schedule: Q01DX009 (ip), vehicle: saline 89 % of control | dose: 200.0 mg/kg/injection, schedule: Q04DX003 (ip), vehicle: saline 92 % of control

CCCCNC(=O)Oc1ccc(C(=O)OCCC)cc1
inactive: [14] 102 % of control and 106 % of control | dose: 100.0 mg/kg/injection, schedule: Q01DX009 (ip), vehicle: other 110 % of control and 86 % of control | [1] 103 % of control and 104 % of control | dose: 100.0 mg/kg/injection, schedule: Q04DX002 (ip), vehicle: other 100 % of control and 101 % of control | dose: 200.0 mg/kg/injection, schedule: Q01DX009 (ip), vehicle: other 89 % of control | [2] 96 % of control and 103 % of control | dose: 200.0 mg/kg/injection, schedule: Q04DX002 (ip), vehicle: other 93 % of control and 105 % of control | dose: 400.0 mg/kg/injection, schedule: Q01DX009 (ip), vehicle: other 93 % of control and 90 % of control | dose: 400.0 mg/kg/injection, schedule: Q04DX002 (ip), vehicle: other 96 % of control and 92 % of control

CCCCN(CCCC)c1ccc([N+](=O)[O-])c2no[n+]([O-])c12
inactive: dose: 15.0 mg/kg/injection, schedule: Q04DX003 (ip), vehicle: saline with Tween-80 100 % of control | dose: 30.0 mg/kg/injection, schedule: Q04DX003 (ip), vehicle: saline with Tween-80 100 % of control | dose: 60.0 mg/kg/injection, schedule: Q04DX003 (ip), vehicle: saline with Tween-80 100 % of control

CC(=O)N1CCC(Cc2ccccc2)CC1
inactive: [16] 104 % of control

O=C(CCl)NC(=O)CCl
inactive: dose: 15.6 mg/kg/injection, schedule: Q01DX010 (ip), vehicle: other 97 % of control | dose: 31.3 mg/kg/injection, schedule: Q01DX009 (ip), vehicle: other 90 % of control | dose: 62.5 mg/kg/injection, schedule: Q01DX009 (ip), vehicle: other 92 % of control | [3] 103 % of control | [11] 103 % of control | dose: 125.0 mg/kg/injection, schedule: Q01DX010 (ip), vehicle: other 95 % of control | [4] 100 % of control | [12] 93 % of control

CC1(C)C2CC3CC(C(=O)O)C(C(=O)O)CC3(C2)C1Br (stereo not drawn)
inactive: [6] 101 % of control | [7] 101 % of control | [8] 101 % of control

O=C(Nc1cccc(F)c1)SCc1ccccc1
inactive: dose: 100.0 mg/kg/injection, schedule: Q01DX009 (ip), vehicle: gum acacia 90 % of control | dose: 200.0 mg/kg/injection, schedule: Q01DX009 (ip), vehicle: gum acacia 90 % of control | dose: 400.0 mg/kg/injection, schedule: Q01DX009 (ip), vehicle: gum acacia 98 % of control

C=CCN1C(=O)NC(=O)C1c1ccsc1 (stereo not drawn)
inactive: [3] 90 % of control | [4] 93 % of control | [5] 93 % of control

CCOC(=O)CN(CC)CC(=O)OCC
inactive: [16] 107 % of control | [11] 93 % of control | dose: 150.0 mg/kg/injection, schedule: Q01DX009 (ip), vehicle: saline with Tween-80 107 % of control | [12] 98 % of control | dose: 300.0 mg/kg/injection, schedule: Q01DX009 (ip), vehicle: saline with Tween-80 109 % of control | [13] 101 % of control
